This note sets out measurements from PMC9415509, “Pro-Apoptotic Antitumoral Effect of Novel Acridine-Core Naphthoquinone Compounds against Oral Squamous Cell Carcinoma” (Molecules, 2022).

The structures appear in SMILES notation. Read-outs that look alike come from different tables or passages of the source. Where only a bound is given, the exact number is not on record here.

One data set deals with SCC9 (OSCC cell). Put plainly: MTT cell viability assay (cytotoxicity), SCC9. The class given is cell-based, human. The settings on record: for IC50: Homo sapiens, read-out: SCC9—Oral Cancer IC50; for SCC9 S.I.: IC50 normal oral fibroblasts / IC50 SCC9. On the procedure:
(§1) Cells and reagents. Human SCC-4, SCC-9, and SCC-25 cells, derived from a human oral tongue SCC (squamous cell carcinoma) were obtained from the ATCC (CRL-1624, CRL-1629, and CRL-1628, respectively) and maintained in 1:1 DMEM/F12 (Dulbecco’s modified Eagle medium and Ham’s F12 medium; Gibco (Thermo Fisher, Waltham, MA, USA)) supplemented with 10% (v/v) FBS (fetal bovine serum; Invitrogen, Thermo Fisher, Waltham, MA, USA) and 400 ng/mL hydrocortisone (Sigma-Aldrich Co., St. Louis, MO, USA). Primary normal human gingival fibroblasts were obtained from the ATCC (PCS-201-018) and maintained in DMEM supplemented with 10% (v/v) FBS and were used in a maximum of six passages. The cells were grown in a humidified environment containing 5% CO2 at 37 °C. […] Carboplatin stock was prepared in water (Fauldcarbo®; LibbsFarmacêutica, São Paulo, SP, Brazil) and was used as a standard anticancer compound.
(§2) Cell viability assay (cytotoxicity) and compound stability assay. The viability of SCC cell lines and primary human fibroblast cells was evaluated using the MTT assay as in [48]. Briefly, the cells were grown in triplicates in 96-well plates (5 × 10^3 cells/well) until confluence. Then, the medium was removed, fresh medium was added, and the cells were returned to the incubator in the presence of different compounds. DMSO at the same concentrations was used as a 100% cell viability control. After 48 h, the cells were incubated with 5 mg/mL MTT reagent (3-(4,5-dimethyl-2-thiazolyl)-2,5-diphenyl-2-H-tetrazolium bromide) (Sigma-Aldrich Co., St. Louis, MO, USA) for 3.5 h. After that, formazan crystals were dissolved in MTT solvent solution (DMSO/methanol 1:1 v/v) and the absorbance at 560 nm was evaluated using an EPOCH microplate spectrophotometer (BioTek Instruments, Winooski, VT, USA) with the background absorbance at 670 nm subtracted.
(§3) Statistical analysis, IC50 calculation. The data are presented as means ±\SD. IC50 values for the MTT assays were obtained by nonlinear regression using the […] 5.0 program (Intuitive Software for Science, San Diego, CA, USA) from at least three independent experiments. A dose–response (inhibitor) vs. response curve using the least squares method was used to determine the IC50, SD, and R^2 of the data. The selectivity index was calculated as SI = IC50 of the compound in normal oral fibroblast cells/IC50 of the same compound for each oral cancer cell line (SCC-4, SCC-9, and SCC-25) and the mean was calculated when indicated.

The test system of another data set is SCC25 OSCC cell line. Briefly: MTT cell viability assay (cytotoxicity), SCC25. The class given is cell-based, human. As to conditions: for IC50: Homo sapiens, read-out: Oral Tumor Cells SCC25 IC50; for SCC25 S.I.: IC50 normal oral fibroblasts / IC50 SCC25. On the procedure:
as §1, §2, §3

A further data set deals with SCC4 OSCC cell line. Put plainly: MTT cell viability assay (cytotoxicity), SCC4. Type of data set: cell-based, human. As to conditions: for IC50: Homo sapiens, read-out: Oral Tumor Cells SCC4 IC50; for SCC4 S.I.: IC50 normal oral fibroblasts / IC50 SCC4. On the procedure: as §1, §2, §3
Data set [1] deals with Primary normal human gingival fibroblasts. Put plainly: MTT cell viability assay, normal fibroblasts. The class given is cell-based. The settings on record: Homo sapiens, Fibroblast, 48 h, read-out: Primary Gingival Fibroblast IC50. The protocol: as §1, §2, §3
Data set [2] in a line: MTT cell viability assay, normal fibroblasts. Type of data set: cell-based, human. As to conditions: human, primary normal human gingival fibroblasts (ATCC PCS-201-018). The protocol:
as §1, §2, §3

Setting [3] is: SCC-9, SCC9, 48 h, MTT (Table 1).
[4] abbreviates: primary gingival fibroblasts, MTT.

`CC(C)=CCC1=C(O)C(=O)c2ccccc2C1=O` [Lapachol, lapachol]: the IC50 in the data set with SCC9 (OSCC cell) (setting [3]) came out at 58.3 µM; with SCC25 OSCC cell line (SCC-25, SCC25, 48 h, MTT) it was 93.8 µM; with SCC4 OSCC cell line (SCC-4, SCC4, 48 h, MTT), 76.9 µM; in data set [1] (setting [4]), 106 µM. Besides, the “SCC9 S.I.” value in the data set with SCC9 (OSCC cell) came to 1.8. Besides, the “SCC25 S.I.” value in the data set on SCC25 OSCC cell line turned out to be 1.1. The “SCC4 S.I.” value with SCC4 OSCC cell line was 1.4.
`COc1ccc(C2C3=C(CC(C)(C)CC3=O)NC3=C2C(=O)c2ccccc2C3=O)c(OC)c1` (centres unmarked) [4j, 12-(2,4-dimethoxyphenyl)-3,3-dimethyl-3,4-dihydrobenzo[b]acridine-1,6,11(2H,5H,12H)-trione] yielded a melting point of 250 to 251 °C. In the data set with SCC9 (OSCC cell) (setting [3]), the IC50 came out at 4.1 µM. Moreover, in the data set with SCC9 (OSCC cell), the “SCC9 S.I.” value is given as 5.7. Also, in the data set on SCC25 OSCC cell line (SCC-25, SCC25, 48 h, MTT), the IC50 turned out to be 11.5 µM. In addition, in the data set with SCC25 OSCC cell line, the “SCC25 S.I.” value was 2.0. Also, the IC50 in the data set on SCC4 OSCC cell line (SCC-4, SCC4, 48 h, MTT) was 18.9 µM. Moreover, the “SCC4 S.I.” value with SCC4 OSCC cell line worked out at 1.2. The same compound yielded a viability at 48 h in data set [2] greater than 75%. Besides, the IC50 in data set [1] (setting [4]) worked out at 23.6 µM.
`COc1cc(C2C3=C(CC(C)(C)CC3=O)NC3=C2C(=O)c2ccccc2C3=O)cc(OC)c1OC` (centres unmarked) [4m, 12-(3,4,5-trimethoxyphenyl)-3,3-dimethyl-3,4-dihydrobenzo[b]acridine-1,6,11(2H,5H,12H)-trione] returned a melting point of 242 to 243 °C. In addition, the IC50 in the data set with SCC9 (OSCC cell) (setting [3]) turned out to be 2.06 µM. For the same compound, the “SCC9 S.I.” value in the data set with SCC9 (OSCC cell) was found to be 3.8. Moreover, the concentration for half-maximal inhibition (IC50) with SCC25 OSCC cell line (SCC-25, SCC25, 48 h, MTT) is 7.41 µM. In the data set with SCC25 OSCC cell line, the “SCC25 S.I.” value was 1.1. Further, in the data set on SCC4 OSCC cell line (SCC-4, SCC4, 48 h, MTT), the half-inhibitory concentration (IC50) came out at 11 µM. Moreover, the “SCC4 S.I.” value in the data set with SCC4 OSCC cell line is reported as 0.7. In data set [2], the viability at 48 h was greater than 75%. In data set [1] (setting [4]), the IC50 was 7.86 µM.
On to `CC(C)=CC[C@@H](O)C1=CC(=O)c2c(O)ccc(O)c2C1=O` [Shikonin, shikonin], for which the IC50 in the data set on SCC9 (OSCC cell) (SCC-9, 48 h) came out at 1.22 µM; in the data set on SCC25 OSCC cell line (SCC-25, 48 h), 2.47 µM; with SCC4 OSCC cell line (SCC-4, 48 h) it was 3.19 µM; in data set [1] it was 2.48 µM. Further, in the data set with SCC9 (OSCC cell), the “SCC9 S.I.” value worked out at 2.0. In the data set on SCC25 OSCC cell line, the “SCC25 S.I.” value stood at 1.0. Besides, the “SCC4 S.I.” value in the data set with SCC4 OSCC cell line was found to be 0.8.
